The values below come from US8343957B2, “Therapeutic pyrazoloquinoline urea derivatives” (Dart Neuroscience (Cayman) Ltd., priority 2007, dated 2013).

What is called IC50 is the concentration at which inhibition is half-maximal.

Bounds are passed on as bounds.

For this experiment, the target named is GABAA central benzodiazepine receptor. As to the kind of experiment: Benzodiazepine Binding Assay. Particulars: read-out: BZ binding Assay IC50; 1 nM (3H)-flunitrazepam, rat whole brain (except cerebellum) membranes, 60 minutes at 25° C.
For `CC(C)N1CCN(C(=O)n2cc3c(=O)n(-c4ccccc4)nc-3c3ccccc32)CC1` [Compd 8, 5-(4-Isopropylpiperazine-1-carbonyl)-2-phenyl-2,5-dihydro-pyrazolo-(4,3-c)quinolin-3-one], the IC50 was less than 1000 nM. Consider `CC(C)N1CCN(C(=O)n2cc3c(=O)n(-c4ccccc4F)nc-3c3ccccc32)CC1` [Compd 15, 5-(4-Isopropylpiperazine-1-carbonyl)-2-(2′-fluorophenyl)-2,5-dihydro-pyrazolo-(4,3-c)quinolin-3-one], for which the IC50 is less than 1000 nM. Turning to `Cc1cc2c(cc1F)c1nn(-c3ccccc3)c(=O)c-1cn2C(=O)N1CCN(C)CC1` [Compd 41, 8-Fluoro-7-methyl-5-(4-methylpiperazine-1-carbonyl)-2-phenyl-2,5-dihydro-pyrazolo-(4,3-c)quinolin-3-one], the IC50 was less than 1000 nM.

`CN1CCCN(C(=O)n2cc3c(=O)n(-c4ccccc4)nc-3c3cc(F)c(F)cc32)CC1` [Compd 52, 5-(4-Methylperhydro[1,4]-diazepine-1-carbonyl)-7,8-difluoro-2-phenyl-2,5-dihydro-pyrazolo[4,3-c]quinolin-3-one]: the IC50 was less than 1000 nM. Consider “5-(4-Isopropylpiperazine-1-carbonyl)-7,8-difluoro-4-methyl-2-phenyl-2,5-dihydro-pyrazolo-(4,3-c)quinolin-3-one [Compd 48]”, for which the IC50 was more than 1000 nM. Regarding `O=C(N1CCC(O)CC1)n1cc2c(=O)n(-c3ccsc3)nc-2c2cc(F)c(F)cc21` [Compd 50, 5-(4-Hydroxypiperidine-1-carbonyl)-2-(thiophen-3-yl)-7,8-difluoro-2,5-dihydro-pyrazolo[4,3-c]quinolin-3-one], the IC50 was less than 1000 nM.

`Cc1c2c(=O)n(-c3ccccc3)nc-2c2ccccc2n1C(=O)N1CCN(C)CC1` [Compd 44, 4-Methyl-5-(4-methylpiperazine-1-carbonyl)-2-phenyl-2,5-dihydro-pyrazolo[4,3-c]quinolin-3-one]: the IC50 was less than 1000 nM. As for `CN1CCN(C(=O)n2cc3c(=O)n(-c4ccccc4)nc-3c3ccccc32)CC1` [Compd 36, 5-(4-Methylpiperazine-1-carbonyl)-2-phenyl-2,5-dihydro-pyrazolo-(4,3-c)quinolin-3-one], the figure is less than 1000 nM; as for `CC(C)N1CCN(C(=O)n2cc3c(=O)n(-c4ccccc4)nc-3c3cc(C(F)(F)F)ccc32)CC1` [Compd 46, 5-(4-Isopropyl-piperazine-1-carbonyl)-2-phenyl-8-trifluoromethyl-2,5-dihydro-pyrazolo[4,3-c]quinolin-3-one], less than 1 nM. Turning to `CN1CCN(C(=O)n2cc3c(=O)n(-c4ccsc4)nc-3c3cc(F)c(F)cc32)CC1` [Compd 49, 5-(4-Methylpiperazine-1-carbonyl)-2-(thiophen-3-yl)-7,8-difluoro-2,5-dihydro-pyrazolo[4,3-c]quinolin-3-one], the IC50 is less than 1000 nM. As to `CN(C)C(=O)n1cc2c(=O)n(-c3ccccc3)nc-2c2ccccc21` [Compd 32, 5-(Dimethylaminocarbonyl)-2-phenyl-2,5-dihydro-pyrazolo-(4,3-c)quinolin-3-one], the IC50 was less than 1000 nM. `CC(C)N1CCN(C(=O)n2cc3c(=O)n(-c4ccccn4)nc-3c3cc(F)c(F)cc32)CC1` [Compd 53, 5-(4-Isopropylpiperazine-1-carbonyl)-7,8-difluoro-2-(2′-pyridyl)-2,5-dihydro-pyrazolo-[4,3-c]quinolin-3-one]: the IC50 was more than 1000 nM. As to `Cc1c2c(=O)n(-c3ccccc3)nc-2c2ccccc2n1C(=O)N1CCN(C(C)C)CC1` [Compd 43, 5-(4-Isopropylpiperazine-1-carbonyl)-4-methyl-2-phenyl-2,5-dihydro-pyrazolo[4,3-c]quinolin-3-one], the IC50 is less than 1000 nM. Take `C=CCN1CCN(C(=O)n2cc3c(=O)n(-c4ccccc4)nc-3c3ccccc32)CC1` [Compd 14, 5-(4-Allylpiperazine-1-carbonyl)-2-phenyl-2,5-dihydro-pyrazolo-(4,3-c) quinolin-3-one]: the IC50 was less than 1000 nM. As for `CN1CCN(C(=O)n2cc3c(=O)n(-c4ccccc4)nc-3c3cc(C(F)(F)F)ccc32)CC1` [Compd 45, 5-(4-Methylpiperazine-1-carbonyl)-2-phenyl-8-trifluoromethyl-2,5-dihydro-pyrazolo[4,3-c]quinolin-3-one], the figure is less than 1000 nM; as for `CN(C)C1CCN(C(=O)n2cc3c(=O)n(-c4ccccc4)nc-3c3ccccc32)CC1` [Compd 33, 5-(4-N,N-Dimethylaminopiperidine-1-carbonyl)-2-phenyl-2,5-dihydro-pyrazolo-(4,3-c)quinolin-3-one], less than 1000 nM. Regarding `Cc1ccc2c(c1)c1nn(-c3ccccc3)c(=O)c-1cn2C(=O)N1CCN(C(C)C)CC1` [Compd 25, 5-(4-Isopropylpiperazine-1-carbonyl)-8-methyl-2-phenyl-2,5-dihydro-pyrazolo-(4,3-c)quinolin-3-one], the IC50 was less than 1000 nM. As for `O=C(N1CCN(c2ccccc2)CC1)n1cc2c(=O)n(-c3ccccc3)nc-2c2cc(F)ccc21` [Compd 37, 5-(4-Phenylpiperazine-1-carbonyl)-8-fluoro-2-phenyl-2,5-dihydro-pyrazolo-(4,3-c)quinolin-3-one], the IC50 was less than 1000 nM.

On to `O=C(N1CCN(c2ccccc2)CC1)n1cc2c(=O)n(-c3ccccc3)nc-2c2ccccc21` [Compd 10, 5-(4-Phenylpiperazine-1-carbonyl)-2-phenyl-2,5-dihydro-pyrazolo-(4,3-c) quinolin-3-one], for which the IC50 was less than 1000 nM.

As for `COc1ccc2c(c1)c1nn(-c3ccccc3)c(=O)c-1cn2C(=O)N1CCN(C)CC1` [Compd 42, 8-Methoxy-5-(4-methylpiperazine-1-carbonyl)-2-phenyl-2,5-dihydro-pyrazolo-(4,3-c)quinolin-3-one], the IC50 was less than 1000 nM. With `CN1CCN(C(=O)n2cc3c(=O)n(-c4ccccc4F)nc-3c3ccccc32)CC1` [Compd 16, 5-(4-Methylpiperazine-1-carbonyl)-2-(2′-fluorophenyl)-2,5-dihydro-pyrazolo-(4,3-c)quinolin-3-one], the half-maximal inhibitory concentration (IC50) was less than 1000 nM. As for `COc1ccc(-n2nc3c4cc(F)ccc4n(C(=O)N4CCN(C(C)C)CC4)cc-3c2=O)cc1` [Compd 39, 5-(4-Isopropylpiperazine-1-carbonyl)-8-fluoro-2-(4′-methoxyphenyl)-2,5-dihydro-pyrazolo-(4,3-c)quinolin-3-one], the figure is less than 1000 nM.

As for `COc1ccc(-n2nc3c4ccccc4n(C(=O)N4CCN(C)CC4)cc-3c2=O)cc1` [Compd 18, 5-(4-Methylpiperazine-1-carbonyl)-2-(4′-methoxyphenyl)-2,5-dihydro-pyrazolo-(4,3-c)quinolin-3-one], the IC50 is less than 1000 nM. On to `Cc1ccc2c(c1)c1nn(-c3ccccc3)c(=O)c-1cn2C(=O)N1CCCN(C)CC1` [Compd 29, 5-(4-Methylperhydro[1,4]-diazepine-1-carbonyl)-8-methyl-2-phenyl-2,5-dihydro-pyrazolo-(4,3-c)quinolin-3-one], for which the IC50 was less than 1000 nM. For the molecule `COCCN1CCN(C(=O)n2cc3c(=O)n(-c4ccccc4)nc-3c3ccccc32)CC1` [Compd 7, 5-(4-(2-Methoxyethyl)-piperazine-1-carbonyl)-2-phenyl-2,5-dihydro-pyrazolo-(4,3-c)quinolin-3-one], the IC50 is less than 1000 nM. Regarding `COc1ccc2c(c1)c1nn(-c3ccccc3)c(=O)c-1cn2C(=O)N1CCN(C(C)C)CC1` [Compd 23, 5-(4-Isopropylpiperazine-1-carbonyl)-8-methoxy-2-phenyl-2,5-dihydro-pyrazolo-(4,3-c)quinolin-3-one], the IC50 is less than 1000 nM. As for `CC1CCCN1C(=O)n1cc2c(=O)n(-c3ccccc3)nc-2c2ccccc21` (centres unmarked) [Compd 9, 5-(2-Methylpyrrolidine-1-carbonyl)-2-phenyl-2,5-dihydro-pyrazolo-(4,3-c) quinolin-3-one], the figure is less than 1000 nM; as for `CN1CCN(C(=O)n2cc3c(=O)n(-c4ccccc4)nc-3c3cc(F)c(F)cc32)CC1` [Compd 22, 5-(4-Methylpiperazine-1-carbonyl)-7,8-difluoro-2-phenyl-2,5-dihydro-pyrazolo-(4,3-c)quinolin-3-one], less than 1000 nM. Take `O=C(N1CCCCC1)n1cc2c(=O)n(-c3ccccc3)nc-2c2ccccc21` [Compd 12, 5-(Piperidine-1-carbonyl)-2-phenyl-2,5-dihydro-pyrazolo-(4,3-c)quinolin-3-one]: the IC50 was less than 1000 nM.

As for `COc1ccc(-n2nc3c4cc(F)c(F)cc4n(C(=O)N4CCN(C(C)C)CC4)cc-3c2=O)cc1` [Compd 38, 5-(4-Isopropylpiperazine-1-carbonyl)-7,8-difluoro-2-(4′-methoxyphenyl)-2,5-dihydro-pyrazolo-(4,3-c)quinolin-3-one], the IC50 was less than 1000 nM.

As to `COc1ccc(-n2nc3c4ccccc4n(C(=O)N4CCN(C(C)C)CC4)cc-3c2=O)cc1` [Compd 17, 5-(4-Isopropylpiperazine-1-carbonyl)-2-(4′-methoxyphenyl)-2,5-dihydro-pyrazolo-(4,3-c)quinolin-3-one], the IC50 was less than 1000 nM.

On to `CC1CCN(C(=O)n2cc3c(=O)n(-c4ccccc4)nc-3c3ccccc32)CC1` [Compd 5, 5-(4-Methylpiperidine-1-carbonyl)-2-phenyl-2,5-dihydro-pyrazolo-(4,3-c)quinolin-3-one], for which the IC50 is less than 1000 nM.
